# Data: patent EP4424671A1, “NOVEL TRICYCLIC DERIVATIVE COMPOUND AND USE THEREOF” (Huchembio Co., Ltd., priority 2021, dated 2023)
# Test system: STAT3 transcriptional activity
# Assay: STAT3 transcriptional activity inhibitory effect, luciferase reporter assay with IL-6 stimulation
# Format: cell-based, human
# Conditions: for STAT3 transcriptional activity inhibitory effect % inhibition, 50-70% / inhibition at 1 µM / STAT3 transcriptional activity inhibitory effect % inhibition, 70% or more: IL-6 (10 ng/mL), 24 hours, HEK293 cells with STAT3 promoter and luciferase reporter; for inhibition at 1 µM: Homo sapiens, read-out: STAT3 transcriptional activity inhibitory effect % inhibition, 50% or less; for STAT3 activity inhibitory effect (in words): compounds at 1 µM compared with BBI-608 at 3 µM
# Protocol: For HEK293 cells, an immortalized human kidney cell line, transformed HEK293 cells, in which an STAT3 promoter and a luciferase reporter were stably expressed, were used. The HEK293 cells, in which the STAT3 promoter was stably expressed, were cultured in a cell incubator at 5% CO2 and 37°C using an MEM (10% FBS) medium, and then an inhibitory effect on STAT3 transcriptional activity was confirmed by the following method.
# First, HEK293 cells, in which the STAT3 promoter was stably expressed, were inoculated into a 96-well plate (white, clear bottom culture plate) at a density of 2X 10^4 cells/well, and then cultured in an incubator at 37°C and 5% CO2 for 24 hours. Then, the compound synthesized according to the above synthesis example (1 µM) or BBI-608 (Napabucasin; comparative group 3 µM) and IL-6 (10 ng/mL) were treated together, and reacted in an incubator at 37°C and 5% CO2 for 24 hours. Afterwards, the culture medium in the 96-well plate was removed, and the cells were lysed by treatment with Passive Lysis Buffer (Promega/Cat. Number E1941). Luciferase activity was tested using the Luciferase Assay System (Promega/Cat. Number E1501), and a luminescence value was measured using a microplate reader. A well not treated with IL-6 (10 ng/mL) without test substance treatment was used as a negative control, and a well treated with IL-6 (10 ng/mL) without test substance treatment was used as a positive control. A degree of STAT3 transcriptional activity inhibitory effect by the compound of the present invention was evaluated by comparing the luminescence values from each well.
Structure (SMILES),inhibition at 1 µM (compound concentration of 1 µM) [%],"STAT3 transcriptional activity inhibitory effect % inhibition, 70% or more (compound concentration of 1 µM)",STAT3 activity inhibitory effect (in words),also measured
"CC(=O)c1cc2c(o1)C(=O)c1ccccc1C2=O [BBI-608, Napabucasin, reference compound]",,,,"STAT3 transcriptional activity inhibitory effect % inhibition, 50-70% (comparative group at 3 uM): ○ (50-70%)"
"O=C1C(=O)c2cc(-c3cncc4ccccc34)ccc2-c2ccc(Br)cc21 [Compound 2, 2-bromo-7-(isoquinolin-4-yl)phenanthrene-9,10-dione]",≤ 50,,,
"O=c1c2ccccc2oc2ccc(-c3cncc4ccccc34)cc12 [Compound 3, 2-(isoquinolin-4-yl)-9H-xanthen-9-one]",≤ 50,,,
"O=c1c2ccccc2sc2ccc(-c3cncc4ccccc34)cc12 [Compound 4, 2-(isoquinolin-4-yl)-9H-thioxanthen-9-one]",,,,"STAT3 transcriptional activity inhibitory effect % inhibition, 50-70% (compound concentration of 1 µM): ○ (50-70%)"
"O=C1c2ccccc2-c2ccc(-c3cncc4nccnc34)cc21 [Compound 5, 2-(pyrido[3,4-b]pyrazin-8-yl)-9H-fluoren-9-one]",,,,"STAT3 transcriptional activity inhibitory effect % inhibition, 50-70% (compound concentration of 1 µM): ○ (50-70%)"
"O=C1c2ccccc2-c2ccc(-c3cncc4cccnc34)cc21 [Compound 7, 2-(1,6-naphthyridin-8-yl)-9H-fluoren-9-one]",,○ (70% or more),excellent STAT3 activity inhibitory effect,
"O=C1c2ccccc2-c2ccc(-c3nccc4ncccc34)cc21 [Compound 8, 2-(1,6-naphthyridin-5-yl)-9H-fluoren-9-one]",,○ (70% or more),excellent STAT3 activity inhibitory effect,
"O=C1c2ccccc2-c2ccc(-c3cnn4ccccc34)cc21 [Compound 9, 2-(pyrazolo[1,5-a]pyridin-3-yl)-9H-fluoren-9-one]",,○ (70% or more),excellent STAT3 activity inhibitory effect,
"O=C1c2ccccc2-c2ccc(-c3cnc4ccccn34)cc21 [Compound 10, 2-(imidazo[1,2-a]pyridin-3-yl)-9H-fluoren-9-one]",≤ 50,,,
"c1ccc2c(-c3ccc4c(c3)sc3ccccc34)cncc2c1 [Compound 11, 4-(dibenzo[b,d]thiophen-3-yl)isoquinoline]",≤ 50,,,
"c1ccc2c(-c3ccc4c(c3)oc3ccccc34)cncc2c1 [Compound 12, 4-(dibenzo[b,d]furan-3-yl)isoquinoline]",≤ 50,,,
"c1ccc2c(-c3ccc4c(c3)[nH]c3ccncc34)cncc2c1 [Compound 13, 7-(isoquinolin-4-yl)-5H-pyrido[4,3-b]indole]",,○ (70% or more),excellent STAT3 activity inhibitory effect,
"O=C1c2ccccc2-c2ccc(-c3cncc4ccccc34)cc21 [Compound 14, 2-(isoquinolin-4-yl)-9H-fluoren-9-one]",,○ (70% or more),excellent STAT3 activity inhibitory effect,
"c1ccc2c(-c3ccc4c(c3)[nH]c3ccccc34)cncc2c1 [Compound 15, 2-(isoquinolin-4-yl)-9H-carbazole]",,,,"STAT3 transcriptional activity inhibitory effect % inhibition, 50-70% (compound concentration of 1 µM): ○ (50-70%)"
"c1ccc2c(-c3ccc4c5c([nH]c4c3)CCCC5)cncc2c1 [Compound 16, 7-(isoquinolin-4-yl)-2,3,4,9-tetrahydro-1H-carbazole]",,,,"STAT3 transcriptional activity inhibitory effect % inhibition, 50-70% (compound concentration of 1 µM): ○ (50-70%)"
"O=C1c2ccccc2-c2ccc(-c3cccc4ccncc34)cc21 [Compound 17, 2-(isoquinolin-8-yl)-9H-fluoren-9-one]",≤ 50,,,
"O=C1c2ccccc2-c2ccc(-c3cccc4cnccc34)cc21 [Compound 18, 2-(isoquinolin-5-yl)-9H-fluoren-9-one]",,,,"STAT3 transcriptional activity inhibitory effect % inhibition, 50-70% (compound concentration of 1 µM): ○ (50-70%)"
"O=C1c2ccccc2-c2ccc(-c3cccc4nccn34)cc21 [Compound 19, 2-(imidazo[1,2-a]pyridin-5-yl)-9H-fluoren-9-one]",≤ 50,,,
"O=C1c2ccccc2-c2ccc(-c3cccn4cnnc34)cc21 [Compound 20, 2-([1,2,4]triazolo[4,3-a]pyridin-8-yl)-9H-fluoren-9-one]",≤ 50,,,
"c1ccc2c(-c3ccc4c5c([nH]c4c3)CCC5)cncc2c1 [Compound 21, 6-(isoquinolin-4-yl)-1,2,3,4-tetrahydrocyclopenta[b]indole]",,○ (70% or more),excellent STAT3 activity inhibitory effect,
"O=C1c2ccccc2-c2ccc(-c3nccc4ccccc34)cc21 [Compound 22, 2-(isoquinolin-1-yl)-9H-fluoren-9-one]",≤ 50,,,
"O=C1c2ccccc2-c2ccc(-c3cccn4ccnc34)cc21 [Compound 23, 2-(imidazo[1,2-a]pyridin-8-yl)-9H-fluoren-9-one]",,○ (70% or more),excellent STAT3 activity inhibitory effect,
